From patent US9796700B2 (Celgene CAR LLC, priority 2013, dated 2017)

Target: Erk1 (Homo sapiens (Human), UniProt P27361)
Assay: Protein Mass Modification Assay (intact protein MALDI)
Type: binding
In short: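 Percent covalent modification comes from the intact-protein MALDI centroid mass shift, treated versus control, divided by compound MW. Before analysis, human Erk1 was exposed to compound at 10-fold excess over protein for 60 min at room temperature.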

Chain of Erk1 (P27361 whole entry, looked up): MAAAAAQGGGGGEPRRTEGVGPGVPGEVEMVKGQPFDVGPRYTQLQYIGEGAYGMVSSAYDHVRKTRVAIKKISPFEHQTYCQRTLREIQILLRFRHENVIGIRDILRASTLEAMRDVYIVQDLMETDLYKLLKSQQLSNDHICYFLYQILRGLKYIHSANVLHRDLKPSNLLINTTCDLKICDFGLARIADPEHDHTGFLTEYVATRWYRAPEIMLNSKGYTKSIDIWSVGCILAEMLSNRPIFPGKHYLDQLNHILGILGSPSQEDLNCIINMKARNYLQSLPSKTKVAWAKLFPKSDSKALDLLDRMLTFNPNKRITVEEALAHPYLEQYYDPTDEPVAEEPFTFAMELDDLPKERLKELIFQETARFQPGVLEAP

Row | Structure (SMILES) | ERK1 Mass Mod (%)
1 | C=CC(=O)Nc1ccccc1Nc1nc(Nc2cc(F)ccc2C)ncc1C(F)(F)F [Compound I-285, N-(2-((2-((5-Fluoro-2-methylphenyl)amino)-5-(trifluoromethyl)pyrimidin-4-yl)amino)phenyl)acrylamide] | E (provided a mass modification of ≧70%)
2 | C=CC(=O)Nc1ccccc1Nc1nc(Nc2ccnc(F)c2)ncc1C(F)(F)F [Compound I-287, N-(2-((2-((2-Fluoropyridin-4-yl)amino)-5-(trifluoromethyl)pyrimidin-4-yl)amino)phenyl)acrylamide] | E (provided a mass modification of ≧70%)
3 | C=CC(=O)Nc1cc(C)ccc1Nc1nc(Nc2ccnc(F)c2)ncc1C(F)(F)F [Compound I-288, N-(2-((2-((2-Fluoropyridin-4-yl)amino)-5-(trifluoromethyl)pyrimidin-4-yl)amino)-5-methylphenyl)acrylamide] | E (provided a mass modification of ≧70%)
4 | C=CC(=O)Nc1ccccc1Nc1nc(Nc2ccnnc2)ncc1C(F)(F)F [Compound I-293, N-(2-((2-(Pyridazin-4-ylamino)-5-(trifluoromethyl)pyrimidin-4-yl)amino)phenyl) acrylamide] | E (provided a mass modification of ≧70%)
5 | C=CC(=O)Nc1cc(C)ccc1Nc1nc(Nc2cc(NCCOC)nc(OC)c2)ncc1C(F)(F)F [Compound I-294, N-(2-((2-((2-methoxy-6-((2-methoxyethyl)amino)pyridin-4-yl)amino)-5-(trifluoromethyl)pyrimidin-4-yl)amino)-5-methylphenyl)acrylamide] | E (key: E: provided a mass modification of ≧70%; F: provided a mass modification of 31-69%; G: proived a mass modification ≦30%)
6 | C=CC(=O)Nc1cc(C)ccc1Nc1nc(Nc2cc(C)nc(OC)c2)ncc1C(F)(F)F [Compound I-295, N-(2-((2-((2-methoxy-6-methylpyridin-4-yl)amino)-5-(trifluoromethyl)pyrimidin-4-yl)amino)-5-methylphenyl)acrylamide] | E (provided a mass modification of ≧70%)
7 | C=CC(=O)Nc1ccccc1Nc1nc(Nc2cc(C(N)=O)c(OCCCNC(=O)CCCC(=O)NCCCOCCOCCOCCCNC(=O)CCCC[C@@H]3SC[C@@H]4NC(=O)N[C@@H]43)cc2C)ncc1Cl [Compound I-299, N^1-(3-(4-((4-((2-acrylamidophenyl)amino)-5-chloropyrimidin-2-yl)amino)-2-carbamoyl-5-methylphenoxy)propyl)-N^5-(15-oxo-19-((3aS,4S,6aR)-2-oxohexahydro-1H-thieno[3,4-d]imidazol-4-yl)-4,7,10-trioxa-14-azanonadecyl)glutaramide] | E (provided a mass modification of ≧70%)
8 | C=CC(=O)Nc1ccccc1Nc1nc(NC2CCN(C(=O)CCCC(=O)NCCCOCCOCCOCCCNC(=O)CCCC[C@@H]3SC[C@@H]4NC(=O)N[C@@H]43)CC2)ncc1Cl [Compound I-300, 5-(4-((4-((2-acrylamidophenyl)amino)-5-chloropyrimidin-2-yl)amino)piperidin-1-yl)-5-oxo-N-(15-oxo-19-((3aS,4S,6aR)-2-oxohexahydro-1H-thieno[3,4-d]imidazol-4-yl)-4,7,10-trioxa-14-azanonadecyl)pentanamide] | E (provided a mass modification of ≧70%)
9 | C=CC(=O)Nc1ccccc1Nc1nc(Nc2ccc(NC(=O)CCCC(=O)NCCCOCCOCCOCCCNC(=O)CCCC[C@H]3SC[C@H]4NC(=O)N[C@H]43)cc2OC)ncc1Cl [Compound I-301, N^1-(4-((4-((2-acrylamidophenyl)amino)-5-chloropyrimidin-2-yl)amino)-3-methoxyphenyl)-N^5-(15-oxo-19-((3aR,4R,6aS)-2-oxohexahydro-1H-thieno[3,4-d]imidazol-4-yl)-4,7,10-trioxa-14-azanonadecyl)glutaramide] | E (provided a mass modification of ≧70%)
10 | C=CC(=O)Nc1ccccc1Nc1nc(Nc2cc(NC(=O)CCCC(=O)NCCCOCCOCCOCCCNC(=O)CCCC[C@@H]3SC[C@@H]4NC(=O)N[C@@H]43)cc(C(N)=O)c2)ncc1Cl [Compound I-304, N^1-(3-((4-((2-acrylamidophenyl)amino)-5-chloropyrimidin-2-yl)amino)-5-carbamoylphenyl)-N-(15-oxo-19-((3aS,4S,6aR)-2-oxohexahydro-1H-thieno[3,4-d]imidazol-4-yl)-4,7,10-trioxa-14-azanonadecyl)glutaramide] | G (proived a mass modification ≦30%)
11 | C=CC(=O)Nc1ccccc1Nc1nc(Nc2cc(C(N)=O)c(OCCCNC(=O)C#CC)cc2C)ncc1Cl [Compound I-305, 5-((4-((2-acrylamidophenyl)amino)-5-chloropyrimidin-2-yl)amino)-2-(3-(but-2-ynamido)propoxy)-4-methylbenzamide] | E (provided a mass modification of ≧70%)
12 | C=CC(=O)Nc1ccccc1Nc1nc(Nc2ccc(N3CCN(C(=O)CCCC(=O)NCCCOCCOCCOCCCNC(=O)CCCC[C@@H]4SC[C@@H]5NC(=O)N[C@@H]54)CC3)cc2OC(F)F)ncc1Cl [Compound I-306, 5-(4-(4-((4-((2-acrylamidophenyl)amino)-5-chloropyrimidin-2-yl)amino)-3-(difluoromethoxy)phenyl)piperazin-1-yl)-5-oxo-N-(15-oxo-19-((3aS,4S,6aR)-2-oxohexahydro-1H-thieno[3,4-d]imidazol-4-yl)-4,7,10-trioxa-14-azanonadecyl)pentanamide] | E (provided a mass modification of ≧70%)
13 | C=CC(=O)Nc1ccccc1Nc1nc(Nc2ccc(N(CC)C(C)=O)cc2C(F)(F)F)ncc1Cl [Compound I-320] | F (provided a mass modification of 31-69%)
14 | C=CC(=O)Nc1cc(C)ccc1Nc1nc(Nc2cc(P(C)(C)=O)ncc2C)ncc1C(F)(F)F [Compound I-343, N-(2-((2-((2-(dimethylphosphoryl)-5-methylpyridin-4-yl)amino)-5-(trifluoromethyl)pyrimidin-4-yl)amino)-5-methylphenyl)acrylamide] | F (provided a mass modification of 31-69%)

The next lines start with the values.

Row | ERK1 Mass Mod (%) | Structure (SMILES)
15 | G (proived a mass modification ≦30%) | CC(=O)N1CCC[C@H](Nc2ncc(C(F)(F)F)c(N[C@H]3[C@@H](C(N)=O)[C@@H]4C=C[C@H]3C4)n2)C1 [Compound I-308, (1S,2S,3R,4R)-3-((2-(((S)-1-acetylpiperidin-3-yl)amino)-5-(trifluoromethyl)pyrimidin-4-yl)amino)bicyclo[2.2.1]hept-5-ene-2-carboxamide]
16 | G (proived a mass modification ≦30%) | COc1cc(N2CCOCC2)ccc1Nc1ncc(C(C)=O)c(Nc2ccccc2N)n1 [Compound I-313, 1-(4-((2-aminophenyl)amino)-2-((2-methoxy-4-morpholinophenyl)amino)pyrimidin-5-yl)ethanone]
17 | E (provided a mass modification of ≧70%) | C=CC(=O)Nc1cc(C(F)(F)F)ccc1Nc1nc(Nc2cc(OC)ncc2C)ncc1C(F)(F)F [Compound I-323, N-(2-((2-((2-methoxy-5-methylpyridin-4-yl)amino)-5-(trifluoromethyl)pyrimidin-4-yl)amino)-5-(trifluoromethyl)phenyl)acrylamide]
18 | E (provided a mass modification of ≧70%) | C=CC(=O)Nc1cc(C)ccc1Nc1nc(Nc2cc(OC)nc(N3CCN(C)CC3)c2)ncc1C(F)(F)F [Compound I-325, N-(2-((2-((2-methoxy-6-(4-methylpiperazin-1-yl)pyridin-4-yl)amino)-5-(trifluoromethyl)pyrimidin-4-yl)amino)-5-methylphenyl)acrylamide]
19 | E (provided a mass modification of ≧70%) | C=CS(=O)(=O)Nc1cc(C)ccc1Nc1nc(Nc2cc(OC)ncc2C)ncc1C(F)(F)F [Compound I-333, N-(2-((2-((2-methoxy-5-methylpyridin-4-yl)amino)-5-(trifluoromethyl)pyrimidin-4-yl)amino)-5-methylphenyl)ethenesulfonamide]
20 | E (provided a mass modification of ≧70%) | C=CC(=O)Nc1cc(C)ccc1Nc1nc(Nc2cc(OC)nc(N(C)CCOC)c2)ncc1C(F)(F)F [Compound I-336, N-(2-((2-((2-methoxy-6-((2-methoxyethyl)(methyl)amino)pyridin-4-yl)amino)-5-(trifluoromethyl)pyrimidin-4-yl)amino)-5-methylphenyl)acrylamide]
21 | E (provided a mass modification of ≧70%) | C=CC(=O)Nc1cc(C)ccc1Nc1nc(Nc2cc(NC3CC3)nc(OC)c2)ncc1C(F)(F)F [Compound I-337, N-(2-((2-((2-(cyclopropylamino)-6-methoxypyridin-4-yl)amino)-5-(trifluoromethyl)pyrimidin-4-yl)amino)-5-methylphenyl)acrylamide]
22 | E (provided a mass modification of ≧70%) | C=CC(=O)Nc1ccccc1Nc1nc(Nc2cc(OC)cc(OC)c2)ncc1C(F)(F)F [Compound I-338, N-(2-((2-((3,5-dimethoxyphenyl)amino)-5-(trifluoromethyl)pyrimidin-4-yl)amino)phenyl)acrylamide]
23 | E (provided a mass modification of ≧70%) | C=CC(=O)Nc1ccccc1Nc1nc(Nc2cc(OC)ccc2C)ncc1C(F)(F)F [Compound I-340, N-(2-((2-((5-methoxy-2-methylphenyl)amino)-5-(trifluoromethyl)pyrimidin-4-yl)amino)phenyl)acrylamide]
24 | E (provided a mass modification of ≧70%) | C=CC(=O)Nc1cc(C)ccc1Nc1nc(Nc2cc(OC)ccc2C)ncc1C(F)(F)F [Compound I-341, N-(2-((2-((5-methoxy-2-methylphenyl)amino)-5-(trifluoromethyl)pyrimidin-4-yl)amino)-5-methylphenyl)acrylamide]
25 | E (provided a mass modification of ≧70%) | C=CC(=O)Nc1cc(C)ccc1Nc1nc(Nc2cc(OC)nc(N(C)C3CC3)c2)ncc1C(F)(F)F [Compound I-342, N-(2-((2-((2-(cyclopropyl(methyl)amino)-6-methoxypyridin-4-yl)amino)-5-(trifluoromethyl)pyrimidin-4-yl)amino)-5-methylphenyl)acrylamide]
